Results: article PMC11322065, “N-demethylsinomenine metabolite and its prototype sinomenine activate mast cells via MRGPRX2 and aggravate anaphylaxis” (Frontiers in Pharmacology, 2024)
Counter-ions that a name gives are not always drawn.

Biological target: T1, MRGPRX2 (Homo sapiens, UniProt Q96LB1)
T1 sequence (Q96LB1 1-330): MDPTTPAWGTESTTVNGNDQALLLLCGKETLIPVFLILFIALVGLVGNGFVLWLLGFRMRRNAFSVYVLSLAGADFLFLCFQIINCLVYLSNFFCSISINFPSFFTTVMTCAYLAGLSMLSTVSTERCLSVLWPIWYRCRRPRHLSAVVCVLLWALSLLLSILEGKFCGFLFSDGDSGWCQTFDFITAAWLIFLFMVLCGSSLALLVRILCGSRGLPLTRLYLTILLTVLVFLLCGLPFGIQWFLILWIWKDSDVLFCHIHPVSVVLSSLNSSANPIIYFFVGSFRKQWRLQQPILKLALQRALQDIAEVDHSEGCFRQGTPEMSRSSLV
Assay: SPR, MRGPRX2 protein immobilised on CM5 chip
Format: binding

Compound	Kd
COC1=C[C@@H]2[C@@H]3Cc4ccc(OC)c(O)c4[C@]2(CCN3)CC1=O [M-3, N-demethylsinomenine]	7.58 µM
COC1=C[C@@H]2[C@@H]3Cc4ccc(OC)c(O)c4[C@]2(CCN3C)CC1=O [SH, sinomenine hydrochloride]	0.681 µM
